Results taken from ChEMBL document CHEMBL4651402, “Screening of ~5500 FDA-approved drugs and clinical candidates for anti-SARS-CoV-2 activity” (2021).

Tested on: SARS-CoV-2
Assay: microbe, parasite or virus in culture
Conditions: Severe acute respiratory syndrome coronavirus 2, Vero C1008, 48 h

SMILES | IC50 | IC50 (read-out: pIC50 (converted))
O=C1OC(c2ccc(O)cc2)(c2ccc(O)cc2)c2ccccc21 [PHENOLPHTHALEIN] | > 20 µM | > 20 µM
Cc1c(Cl)cccc1Nc1ccccc1C(=O)O [TOLFENAMIC ACID] | > 20 µM | > 20 µM
Clc1ccc2c(c1)C(N1CCNCC1)=Nc1ccccc1O2 [AMOXAPINE] | > 20 µM | > 20 µM
CC1(C)Oc2ccc(OC(F)(F)F)cc2[C@@H](N2Cc3ccccc3C2=O)C1O (stereo partly specified) | > 20 µM | > 20 µM
Cc1nc2ccccc2n1Cc1ccc(Cl)cc1 [CHLORMIDAZOLE] | > 20 µM | > 20 µM
NCCCCCCN | > 20 µM | > 20 µM
CN1N=C2CCN(C(=O)[C@@H](COCc3ccccc3)NC(=O)C(C)(C)N)C[C@@]2(Cc2ccccc2)C1=O [CAPROMORELIN] | > 20 µM | > 20 µM
CC(C)[C@H](O)C(=O)N[C@@H](C)C(=O)N[C@@H]1C(=O)N(C)CCc2ccccc21 | > 20 µM | > 20 µM
COc1ccc(C[C@H]2NC[C@H](O)[C@H]2OC(C)=O)cc1 [ANISOMYCIN] | > 20 µM | > 20 µM
Cc1c(C(N)=O)cc([N+](=O)[O-])cc1[N+](=O)[O-] [DINITOLMIDE] | > 20 µM | > 20 µM
C[C@]12CC[C@H]3[C@@H](CCC4=CC(=O)CC[C@@]43C)[C@@H]1CC[C@@H]2C(=O)CO [DESOXYCORTICOSTERONE] | > 20 µM | > 20 µM
CCC[C@@H]1CC(=O)N([C@@H](CC)C(N)=O)C1 [BRIVARACETAM] | > 20 µM | > 20 µM
O=C(O)Cc1csc(-c2ccc(Cl)cc2)n1 [FENCLOZIC ACID] | > 20 µM | > 20 µM
C=CCN1CC[C@]23c4c5ccc(O)c4O[C@H]2C(=O)CC[C@@]3(O)[C@H]1C5 [NALOXONE] | > 20 µM | > 20 µM
C=CCC1(CC(C)C)C(=O)NC(=O)NC1=O [BUTALBITAL] | > 20 µM | > 20 µM
CC(C)NC[C@@H](C(=O)N1CCN(c2ncnc3c2[C@H](C)C[C@H]3O)CC1)c1ccc(Cl)cc1 [IPATASERTIB] | > 20 µM | > 20 µM
CCCCC(CC)CNC(=N)NC(=N)NCCCCCCNC(=N)NC(=N)NCC(CC)CCCC (stereo unspecified) [ALEXIDINE] | > 20 µM | > 20 µM
COc1cc2c(cc1OC)-c1cc3ccc(OC)c(OC)c3c[n+]1CC2 [PALMITINE] | > 20 µM | > 20 µM
C#CCOC[C@@H]1CO[C@@](Cn2ccnc2)(c2ccc(Cl)cc2Cl)O1 | > 20 µM | > 20 µM

SMILES | IC50 | IC50 (read-out: pIC50 (converted))
Nc1cc(C(F)(F)F)c(-c2cc(N3CCOCC3)nc(N3CCOCC3)n2)cn1 [BUPARLISIB] | > 20 µM | > 20 µM
COc1cc(C(=O)NC2CCCNC2)cc(OC)c1OC (stereo unspecified) [TROXIPIDE] | > 20 µM | > 20 µM
N[C@@H](Cc1c[nH]c2ccccc12)C(=O)O [TRYPTOPHAN] | > 20 µM | > 20 µM
O=C(/C=C/C=C/c1ccc2c(c1)OCO2)N1CCCCC1 [PIPERINE] | > 20 µM | > 20 µM
C=C(C)[C@@H]1CCC(C)=C[C@H]1c1c(O)cc(CCCCC)cc1O [CANNABIDIOL] | > 20 µM | > 20 µM
N#Cc1ccc(C(c2ccc(C#N)cc2)n2cncn2)cc1 [LETROZOLE] | > 20 µM | > 20 µM
O=C(O)c1cc(O)c2cccc(O)c2n1 [XANTHURENATE] | > 20 µM | > 20 µM
O=C(/C=C/c1ccc(O)cc1)c1ccc(O)cc1O [ISOLIQUIRITIGENIN] | > 20 µM | > 20 µM
COc1cc(NCCCC(C)N)c2ncccc2c1 (stereo unspecified) [QUINOCIDE] | > 20 µM | > 20 µM
O=C(O)/C=C/c1c[nH]cn1 | > 20 µM | > 20 µM
C/C(=C(\OCCOc1ccc(Cl)cc1)c1ccc(Cl)cc1Cl)n1ccnc1 | > 20 µM | > 20 µM
COc1cccc(-c2cc(F)c(Nc3ncccc3C(=O)O)c(F)c2)c1 [ASLAN-003] | > 20 µM | > 20 µM
CN1C2CCC1CC(OC(c1ccccc1)c1ccccc1)C2 (stereo unspecified) | > 20 µM | > 20 µM
Clc1ccc(CCCOCCCN2CCCCC2)cc1 [PITOLISANT] | > 20 µM | > 20 µM
CCCN1CCCC2Cc3nc(N)ncc3CC21 (stereo unspecified) | > 20 µM | > 20 µM
Cc1cc(/N=C(\Nc2nccs2)NC2CCCCC2)c2ccccc2n1 [TIMEGADINE] | > 20 µM | > 20 µM
COCCOc1cnc(NS(=O)(=O)c2ccccc2)nc1 [GLYMIDINE] | > 20 µM | > 20 µM
CCn1cc(C(=O)O)c(=O)c2ccc(C)nc21 [NALIDIXIC ACID] | > 20 µM | > 20 µM
CN(C)CCN(Cc1ccccc1)c1ccccc1 | > 20 µM | > 20 µM
